Measured values: patent publication US9695180B2 (Incyte Corporation, priority 2014, dated 2017)
Like-named read-outs stand apart in the source and are kept apart here.

Molecular target: LSD-1 enzyme (Homo sapiens (Human), UniProt O60341)
Experiment: LANCE LSD1/KDM1A demethylase assay (LSD1 histone demethylase biochemical assay)
Experimental: Example A: LSD1 Histone Demethylase Biochemical Assay
LANCE LSD1/KDM1A demethylase assay—10 μL of 1 nM LSD-1 enzyme (ENZO BML-SE544-0050) in the assay buffer (50 mM Tris, pH 7.5, 0.01% Tween-20, 25 mM NaCl, 5 mM DTT) were preincubated for 1 hour at 25° C. with 0.8 μL compound/DMSO dotted in black 384 well polystyrene plates. […] Reactions were stopped by addition of 10 μL 1× LANCE Detection Buffer (PerkinElmer CR97-100) supplemented with 1.5 nM Eu-anti-unmodified H3K4 Antibody (PerkinElmer TRF0404), and 225 nM LANCE Ultra Streptavidin (PerkinElmer TRF102) along with 0.9 mM Tranylcypromine-HCl (Millipore 616431). After stopping the reactions plates were incubated for 30 minutes and read on a PHERAstar FS plate reader (BMG Labtech).

[1] = 1 nM LSD-1 enzyme, 1 hour preincubation at 25° C., Biotin-labeled Histone H3 peptide substrate, read-out: IC50

## CN1CCC[C@@H](COc2nc(-c3ccc(C#N)cc3)c(-c3cc(F)c(CO)c(F)c3)n3ccnc23)C1 [Example 83, 4-(5-[3,5-difluoro-4-(hydroxymethyl)phenyl]-8-{[(3R)-1-methylpiperidin-3-yl]methoxy}imidazo[1,2-a]pyrazin-6-yl)benzonitrile]
  IC50: 50 to 500 nM

## CN(C)[C@H]1CCN(Cc2nc(-c3ccc(C#N)cc3)c(-c3ccc(N4CCCC4=O)nc3)n3ccnc23)C1 [Example 56, 4-{8-{[(3S)-3-(dimethylamino)pyrrolidin-1-yl]methyl}-5-[6-(2-oxopyrrolidin-1-yl)pyridin-3-yl]imidazo[1,2-a]pyrazin-6-yl}benzonitrile]
  IC50: 50 to 500 nM

## Cc1ncc(-c2c(-c3ccc(C#N)cc3)nc(OC[C@@H]3CCCN(C)C3)c3nccn23)cc1C#N [Example 117, 5-(6-(4-cyanophenyl)-8-{[(3R)-1-methylpiperidin-3-yl]methoxy}imidazo[1,2-a]pyrazin-5-yl)-2-methylnicotinonitrile]
  IC50: 50 to 500 nM

## CN1CCC[C@@H](COc2nc(-c3ccc(C#N)cc3)c(-c3ccc4c(c3)CC(O)C4)n3ccnc23)C1 (single isomer, unassigned) [78 (peak 1)]
[1]
  IC50: < 50 nM

## CN1CCC[C@@H](COc2nc(-c3ccc(C#N)cc3)c(-c3ccc(CN4CCOCC4)cc3)n3ccnc23)C1 [Example 75, 4-{8-{[(3R)-1-methylpiperidin-3-yl]methoxy}-5-[4-(morpholin-4-ylmethyl)phenyl]imidazo[1,2-a]pyrazin-6-yl}benzonitrile]
  IC50: 50 to 500 nM

## CN1CCC[C@@H](COc2nc(-c3ccc(C#N)cc3)c(-c3ccc4c(c3)OCCO4)n3ccnc23)C1 [Example 50, 4-(5-(2,3-dihydro-1,4-benzodioxin-6-yl)-8-{[(3R)-1-methylpiperidin-3-yl]methoxy}imidazo[1,2-a]pyrazin-6-yl)benzonitrile]
  IC50: 50 to 500 nM

## CN1CCC[C@@H](COc2nc(-c3ccc(C#N)cc3)c(-c3ccc(CO)cc3)n3ccnc23)C1 [Example 74, 4-(5-[4-(hydroxymethyl)phenyl]-8-{[(3R)-1-methylpiperidin-3-yl]methoxy}imidazo[1,2-a]pyrazin-6-yl)benzonitrile]
  IC50: 50 to 500 nM

## Cc1ccc(-c2c(-c3ccc(C#N)cc3)nc(OCCCN(C)C)c3nccn23)cc1 [Example 8, 4-[8-[3-(dimethylamino)propoxy]-5-(4-methylphenyl)imidazo[1,2-a]pyrazin-6-yl]benzonitrile]
  IC50: 50 to 500 nM

## C[C@H](O)c1nc2cc(-c3c(-c4ccc(C#N)cc4)nc(N4CCC(N(C)C)CC4)c4nccn34)ccc2n1C [Example 114, 4-(8-[4-(dimethylamino)piperidin-1-yl]-5-{2-[(1S)-1-hydroxyethyl]-1-methyl-1H-benzimidazol-5-yl}imidazo[1,2-a]pyrazin-6-yl)benzonitrile]
  IC50: 50 to 500 nM

## CN1CCC[C@@H](COc2nc(-c3ccc(C#N)cc3)c(-c3ccc(CN4CCOCC4)cc3F)n3ccnc23)C1 [Example 89, 4-(5-[2-fluoro-4-(morpholin-4-ylmethyl)phenyl]-8-{[(3R)-1-methylpiperidin-3-yl]methoxy}imidazo[1,2-a]pyrazin-6-yl)benzonitrile]
  IC50: 50 to 500 nM

## CN1CCC[C@@H](COc2nc(-c3ccc(C#N)cc3)c(-c3ccc(CN4CCOCC4)c(F)c3)n3ccnc23)C1 [Example 82, 4-(5-[3-fluoro-4-(morpholin-4-ylmethyl)phenyl]-8-{[(3R)-1-methylpiperidin-3-yl]methoxy}imidazo[1,2-a]pyrazin-6-yl)benzonitrile]
  IC50: 50 to 500 nM

## Cn1c(=O)oc2cc(-c3c(-c4ccc(C#N)cc4)nc(OC[C@@H]4CCCN(CCC#N)C4)c4nccn34)ccc21 [Example 64, 4-[8-{[(3R)-1-(2-cyanoethyl)piperidin-3-yl]methoxy}-5-(3-methyl-2-oxo-2,3-dihydro-1,3-benzoxazol-6-yl)imidazo[1,2-a]pyrazin-6-yl]benzonitrile]
  IC50: 50 to 500 nM

## CN1CCC[C@@H](COc2nc(-c3ccc(C#N)cc3)c(-c3ccc4c(c3)CC(O)C4)n3ccnc23)C1 (single isomer, unassigned) [78 (peak 2)]
[1]
  IC50: < 50 nM
